The source of these data is patent US7220824B1, “Integrin-mediated drug targeting” (Bayer Aktiengesellschaft, priority 2000, dated 2007).

One experiment has as its system MDA-MB 231. Briefly: Growth inhibition test (MTT), cytotoxic action on tumour cell lines. The settings on record: Homo sapiens, MDA-MB-231, 144 h, read-out: IC50 values of the cytotoxic action on tumour cell lines, MDA-MB 231. The format is cell-based. The method, then: (§1) The human large intestine cell lines SW 480 and HT29 (ATCC No. CCL 228 and HTB38), the human breast cell lines MDA-MB 231, MCF-7 and BT20 (ATCC No. HTB-, 26, 22 and 23) and the mouse melanoma cell line B16F 10 (CRL 6475) were grown to confluence in Roux dishes in RPMI 1640 medium with addition of 10% FCS. They were then trypsinized and taken up in RPMI plus 10% FCS to a cell count of 50,000 cells or, for B16F10, 20,000 cells per ml. 100 μl of cell suspension/well were added to a 96 microwell plate and incubated at 37° C. for 1 day in a CO2 incubator. A further 100 μl of RPMI medium and 1 μl of DMSO were then added with the test substances. The growth was checked after day 6. For this, 25 μl of MTT solution (3-(4,5-dimethylthiazol-2-yl)-2,5-diphenyltetrazolium bromide) was added to each well at a starting concentration of 5 mg/ml of H2O. The plate was incubated at 37° C. for 5 hours in a CO2 incubator. The medium was then aspirated and 100 μl of i-propanol/well were added. After shaking with 100 μl of H2O for 30 min, the extinction was measured at 595-nm using a Multiplate Reader (BIO-RAD 3550-UV).
(§2) The cytostatic action is indicated in Table 2 as an IC50 value, in each case for the individual cell lines.

The test system of a further experiment is SW480. Described as above. The format is cell-based. The settings on record: Homo sapiens, SW480, 144 h, read-out: IC50 values of the cytotoxic action on tumour cell lines, SW480. The method, then: as §1, §2
For a further experiment, the system named is B16F10. Described as above. The experiment is classed as cell-based. The settings on record: Mus musculus, B16-F10, 144 h, read-out: IC50 values of the cytotoxic action on tumour cell lines, B16F10. The method, then: as §1, §2
The test system of another experiment is BT20. The experiment is described as above. The format is cell-based. The settings on record: Homo sapiens, BT-20, 144 h, read-out: IC50 values of the cytotoxic action on tumour cell lines, BT20. The method, then:
as §1, §2

In the next experiment the test system is HT 29. The description is as above. The experiment is classed as cell-based. The settings on record: Homo sapiens, HT-29, 144 h, read-out: IC50 values of the cytotoxic action on tumour cell lines, HT 29. The method, then: as §1, §2
Another experiment deals with MCF7. The description is as above. The format is cell-based. The note with it: Homo sapiens, MCF7, 144 h, read-out: IC50 values of the cytotoxic action on tumour cell lines, MCF7. The method, then: as §1, §2
For experiment [1], the target named is T1, αvβ3 receptor (αvβ3 from human A375 cells) (Homo sapiens, UniProt P05106+P06756).
T1 construct: αvβ3 from human A375 cells was purified analogously to a procedure which was described by Wong et al; endogenous in cells; host or cells: human A375 cells; the receptor was purified from the cells and used detergent-solubilised (n-octyl-glucopyranoside)
T1 sequence (P06756 31-889 limits assumed): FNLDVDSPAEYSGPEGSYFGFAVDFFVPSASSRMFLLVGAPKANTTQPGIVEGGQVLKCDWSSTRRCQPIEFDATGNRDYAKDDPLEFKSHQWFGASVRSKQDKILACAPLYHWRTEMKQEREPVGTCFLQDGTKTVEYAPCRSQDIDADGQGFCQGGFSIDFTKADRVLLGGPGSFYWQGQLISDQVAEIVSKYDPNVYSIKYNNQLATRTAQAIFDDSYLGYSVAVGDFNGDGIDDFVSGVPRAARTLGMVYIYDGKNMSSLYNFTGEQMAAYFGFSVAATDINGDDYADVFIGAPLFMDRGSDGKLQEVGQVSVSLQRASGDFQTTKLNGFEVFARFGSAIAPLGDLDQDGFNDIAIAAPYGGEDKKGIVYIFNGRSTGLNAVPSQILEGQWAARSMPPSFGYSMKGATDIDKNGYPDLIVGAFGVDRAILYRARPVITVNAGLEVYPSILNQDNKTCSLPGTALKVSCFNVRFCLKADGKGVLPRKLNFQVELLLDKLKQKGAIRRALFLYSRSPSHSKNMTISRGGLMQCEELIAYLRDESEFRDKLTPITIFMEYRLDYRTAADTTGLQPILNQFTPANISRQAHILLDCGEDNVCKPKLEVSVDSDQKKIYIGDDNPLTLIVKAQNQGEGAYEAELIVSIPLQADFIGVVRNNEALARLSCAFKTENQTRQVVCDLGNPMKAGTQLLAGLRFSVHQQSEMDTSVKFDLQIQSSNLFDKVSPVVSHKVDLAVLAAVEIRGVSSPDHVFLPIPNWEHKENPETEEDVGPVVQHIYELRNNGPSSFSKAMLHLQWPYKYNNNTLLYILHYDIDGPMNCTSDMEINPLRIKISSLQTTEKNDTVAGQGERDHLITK
T1 sequence (P06756 891-1048 partner limits assumed): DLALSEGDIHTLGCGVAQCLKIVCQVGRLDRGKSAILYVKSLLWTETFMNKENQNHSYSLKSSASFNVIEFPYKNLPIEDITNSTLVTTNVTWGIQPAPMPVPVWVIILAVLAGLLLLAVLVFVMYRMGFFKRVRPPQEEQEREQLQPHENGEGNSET
T1 sequence (P05106 27-788): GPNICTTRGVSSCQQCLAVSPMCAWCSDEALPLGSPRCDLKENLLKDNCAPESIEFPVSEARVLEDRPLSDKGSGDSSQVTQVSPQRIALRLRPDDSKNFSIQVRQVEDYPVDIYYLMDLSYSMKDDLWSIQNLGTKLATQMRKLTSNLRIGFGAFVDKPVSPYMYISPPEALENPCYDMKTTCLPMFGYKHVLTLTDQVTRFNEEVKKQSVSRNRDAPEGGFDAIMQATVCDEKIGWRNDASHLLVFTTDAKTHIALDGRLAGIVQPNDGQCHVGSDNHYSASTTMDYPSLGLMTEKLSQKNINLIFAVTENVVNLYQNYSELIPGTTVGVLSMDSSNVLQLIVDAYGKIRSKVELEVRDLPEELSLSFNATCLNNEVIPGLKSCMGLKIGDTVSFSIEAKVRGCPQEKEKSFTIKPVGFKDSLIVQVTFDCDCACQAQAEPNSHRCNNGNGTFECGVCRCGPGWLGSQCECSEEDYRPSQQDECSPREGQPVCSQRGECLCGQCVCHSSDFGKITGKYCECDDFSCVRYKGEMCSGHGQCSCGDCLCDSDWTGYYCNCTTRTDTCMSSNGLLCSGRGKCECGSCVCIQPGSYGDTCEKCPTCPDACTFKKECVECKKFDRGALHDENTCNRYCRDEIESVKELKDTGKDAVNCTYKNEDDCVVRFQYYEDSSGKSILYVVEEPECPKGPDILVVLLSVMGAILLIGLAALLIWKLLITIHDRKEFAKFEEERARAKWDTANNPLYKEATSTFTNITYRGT
Briefly: αvβ3 binding test (echistatin displacement, WGA SPA beads). The method, then:
αvβ3 from human A375 cells was purified analogously to a procedure which was described by Wong et al. (Molecular Pharmacology, 50, 529–537 (1996)). In each case, 10 μl of αvβ3 (5 ng) in TBS pH 7.6, 2 mM CaCl2, 1 mM MgCl2, 1% n-octyl-glucopyranoside (Sigma); 10 μl of test substance in TBS pH 7.6, 0.1% DMSO and 45 μl of TBS pH 7.6, 2 mM CaCl2, 1 mM MgCl2, 1 mM MnCl2 were incubated at room temperature for 1 h. In each case, 25 μl of WGA SPA beads (Amersham, 4 mg/ml) and 10 μl of echistatin ([…], Amersham, chloramine-T labelled) were then added. After 16 hours at room temperature, the samples were measured in a scintillation measuring apparatus (Wallac 1450).

Setting [2] is: αvβ3 purified from human A375 cells, labelled echistatin, read-out: IC50 values of the binding to the αvβ3 receptor.

Structures are written as SMILES. Read-outs that look alike come from different tables or passages of the source.

Usually IC50 stands for the concentration needed to halve the response being measured.

For the compound `CCC1(OC(=O)[C@@H](NC(=O)Nc2cccc(-c3ccc(S(=O)(=O)NC(CC(=O)O)c4ccccc4)cc3)c2)C(C)C)C(=O)OCc2c1cc1n(c2=O)Cc2cc3ccccc3nc2-1` (stereo partly shown) [Example 2.12], the IC50 with MDA-MB 231 was determined as 0.01 µM; in the experiment with SW480, 0.02 µM; in the experiment on B16F10, 0.02 µM; in the experiment with BT20, 0.008 µM; in the experiment on HT 29, 0.009 µM; in the experiment on MCF7 it was 0.01 µM. Besides, the IC50 in experiment [1] (setting [2]) was 0.127 µM.

With `CC[C@@]1(OC(=O)[C@@H](NC(=O)Nc2cccc(-c3cccc(S(=O)(=O)NC(CC(=O)O)c4ccccc4)c3)c2)C(C)C)C(=O)OCc2c1cc1n(c2=O)Cc2cc3ccccc3nc2-1` (stereo partly shown) [Example 2.13], the IC50 with MDA-MB 231 amounted to 0.02 µM; in the experiment on SW480, 0.015 µM; in the experiment on B16F10, 0.02 µM; in the experiment with BT20, 0.005 µM; in the experiment with HT 29, 0.015 µM; in the experiment with MCF7, 0.01 µM. Also, the IC50 in experiment [1] (setting [2]) is 0.097 µM.

For `CC[C@@]1(OC(=O)[C@@H](NC(=O)[C@H](CCCCNC(=O)OCC2c3ccccc3-c3ccccc32)NC(=O)Nc2cccc(-c3ccc(S(=O)(=O)NC(CC(=O)O)c4ccccc4)cc3)c2)C(C)C)C(=O)OCc2c1cc1n(c2=O)Cc2cc3ccccc3nc2-1` (stereo partly shown) [Example 2.14], the IC50 with MDA-MB 231 came to 0.3 µM; in the experiment with SW480, 0.3 µM; in the experiment on B16F10 it was 0.025 µM; in the experiment on BT20, 0.2 µM; with HT 29, 0.3 µM; in the experiment on MCF7, 0.15 µM. This compound displayed an IC50 in experiment [1] of 0.084 µM.

On to `CC[C@@]1(OC(=O)[C@@H](NC(=O)[C@H](Cc2c[nH]cn2)NC(=S)Nc2cccc(S(=O)(=O)NC(CC(=O)O)c3cccc(NS(=O)(=O)c4cccc(NC(=N)N)c4)c3)c2)C(C)C)C(=O)OCc2c1cc1n(c2=O)Cc2cc3ccccc3nc2-1` (stereo partly shown) [Example 3.1], for which the half-maximal inhibitory concentration (IC50) stood at 0.5 µM in the experiment with MDA-MB 231; 1 µM in the experiment on SW480; 1 µM in the experiment with B16F10; 1 µM in the experiment with BT20; 0.4 µM in the experiment on HT 29; 0.8 µM in the experiment with MCF7. The IC50 in experiment [1] came to 0.147 µM.

`CC[C@@]1(OC(=O)[C@@H](NC(=O)[C@H](Cc2c[nH]cn2)NC(=S)Nc2ccc(S(=O)(=O)NC(CC(=O)O)c3cccc(NS(=O)(=O)c4cccc(NC(=N)N)c4)c3)cc2)C(C)C)C(=O)OCc2c1cc1n(c2=O)Cc2cc3ccccc3nc2-1` (stereo partly shown) [Example 3.2]: the IC50 is 0.2 µM in the experiment with MDA-MB 231; 0.4 µM in the experiment on SW480; 1 µM in the experiment with B16F10; 0.2 µM in the experiment on BT20; 0.2 µM in the experiment on HT 29; 0.2 µM in the experiment on MCF7. The IC50 in experiment [1] was 0.045 µM.

Consider `CC[C@@]1(OC(=O)[C@@H](NC(=O)[C@H](CCCCN)NC(=S)Nc2ccc(S(=O)(=O)NC(CC(=O)O)c3cccc(NS(=O)(=O)c4cccc(NC(=N)N)c4)c3)cc2)C(C)C)C(=O)OCc2c1cc1n(c2=O)Cc2cc3ccccc3nc2-1` (stereo partly shown) [Example 3.4], for which the IC50 in the experiment on MDA-MB 231 was 0.3 µM; in the experiment on SW480 it was 0.2 µM; in the experiment on B16F10 it was 0.5 µM; in the experiment with BT20, 0.7 µM; with HT 29, 0.2 µM; with MCF7 it was 0.7 µM. Besides, the IC50 in experiment [1] (setting [2]) worked out at 0.065 µM.

On to `CC[C@@]1(OC(=O)[C@@H](NC(=O)[C@H](Cc2cnc[nH]2)NC(=S)Nc2cccc(C(CC(=O)O)NS(=O)(=O)c3cccc(-c4cccc(NC(=O)Nc5nc6ccccc6[nH]5)c4)c3)c2)C(C)C)C(=O)OCc2c1cc1n(c2=O)Cc2cc3ccccc3nc2-1` (stereo partly shown) [Example 3.6], for which the IC50 in the experiment on MDA-MB 231 amounted to 0.4 µM; in the experiment with SW480, 0.4 µM; in the experiment on B16F10 it was 2 µM; in the experiment with BT20, 1 µM; with HT 29, 0.3 µM; in the experiment on MCF7, 0.4 µM. The IC50 in experiment [1] is 0.022 µM.
